According to US20050124667A1, “Oxamide inhibitors of plasminogen activator inhibitor-1” (priority 2003, published 2005):

Row | SMILES | melting point
1 | N#Cc1ccc(O)c(NC(=O)C(=O)Nc2cc(Cl)cc(Cl)c2O)c1 [Example 15, N-(5-Cyano-2-hydroxy-phenyl)-N′-(3,5-dichloro-2-hydroxy-phenyl)-oxalamide] | 298 °C
2 | O=C(Nc1ccc(C(=O)O)cc1O)C(=O)Nc1cc(Cl)cc(Cl)c1O [Example 24, 4-[(3,5-Dichloro-2-hydroxy-phenylaminooxalyl)-amino]-3-hydroxy-benzoic Acid] | 323 °C
3 | O=C(Nc1cc([N+](=O)[O-])ccc1O)C(=O)Nc1cc(Cl)cc(Cl)c1O [Example 4, N-(3,5-Dichloro-2-hydroxy-phenyl)-N′-(2-hydroxy-5-nitro-phenyl)-oxalamide] | 386 °C
4 | O=C(Nc1cc(F)ccc1O)C(=O)Nc1cc(Cl)cc(Cl)c1O [Example 18, N-(3,5-Dichloro-2-hydroxy-phenyl)-N′-(5-fluoro-2-hydroxy-phenyl)-oxalamide] | 297 °C
5 | CCOC(=O)c1ccc(O)c(NC(=O)C(=O)Nc2cc(Cl)cc(Cl)c2O)c1 [Example 25, 3-[(3,5-Dichloro-2-hydroxy-phenylaminooxalyl)-amino]-4-hydroxy-benzoic Acid Ethyl Ester] | 270 °C
6 | Cc1ccc(NC(=O)C(=O)Nc2cc(Cl)cc(Cl)c2O)c(O)c1 [Example 3, N-(3,5-Dichloro-2-hydroxy-phenyl)-N′-(2-hydroxy-4-methyl-phenyl)-oxalamide] | 283 °C
7 | CN1CCN(CCCNC(=O)c2ccc(O)c(NC(=O)C(=O)Nc3cc(Cl)cc(Cl)c3O)c2)CC1 [Example 30, N-(3,5-Dichloro-2-hydroxy-phenyl)-N′-{2-hydroxy-5-[3-(4-methyl-piperazin-1-yl)-propylcarbamoyl]-phenyl}-oxalamide] | 232 °C
8 | COC(=O)c1ccc(NC(=O)C(=O)Nc2cc(Cl)cc(Cl)c2O)c(O)c1 [Example 12, 4-[(3,5-Dichloro-2-hydroxy-phenylaminooxalyl)-amino]-3-hydroxy-benzoic Acid Methyl Ester] | 271 °C
9 | COc1ccc(O)c(NC(=O)C(=O)Nc2cc(Cl)cc(Cl)c2O)c1 [Example 17, N-(3,5-Dichloro-2-hydroxy-phenyl)-N′-(2-hydroxy-5-methoxy-phenyl)-oxalamide] | 273 °C
10 | O=C(Nc1cc2ccccc2cc1O)C(=O)Nc1cc(Cl)cc(Cl)c1O [Example 6, N-(3,5-Dichloro-2-hydroxy-phenyl)-N′-(3-hydroxy-naphthalen-2-yl)-oxalamide] | 313 °C
11 | CN1CCCC1CCNC(=O)c1ccc(O)c(NC(=O)C(=O)Nc2cc(Cl)cc(Cl)c2O)c1 (racemic) [Example 34, N-(3,5-Dichloro-2-hydroxy-phenyl)-N′-{2-hydroxy-5-[2-(1-methyl-pyrrolidin-2-yl)-ethylcarbamoyl]-phenyl}-oxalamide (Racemic)] | 220 °C
12 | O=C(Nc1cc(C(F)(F)F)ccc1O)C(=O)Nc1cc(Cl)cc(Cl)c1O [Example 21, N-(3,5-Dichloro-2-hydroxy-phenyl)-N′-(2-hydroxy-5-trifluoromethyl-phenyl)-oxalamide] | 281 °C
13 | O=C(Nc1ccc(C(=O)NCCCn2ccnc2)cc1O)C(=O)Nc1cc(Cl)cc(Cl)c1O [Example 43, N-(3,5-Dichloro-2-hydroxy-phenyl)-N′-[2-hydroxy-4-(3-imidazol-1-yl-propylcarbamoyl)-phenyl]-oxalamide] | 225 °C
14 | CN(C)CCCNC(=O)c1ccc(O)c(NC(=O)C(=O)Nc2cc(Cl)cc(Cl)c2O)c1 [Example 35, N-(3,5-Dichloro-2-hydroxy-phenyl)-N′-[5-(3-dimethylamino-propylcarbamoyl)-2-hydroxy-phenyl]-oxalamide] | 205 °C

More lines, now with the values ahead:

Row | melting point | SMILES
15 | 260 °C | CCC(C)(C)c1ccc(NC(=O)C(=O)Nc2cc(Cl)cc(Cl)c2O)c(O)c1 [Example 9, N-(3,5-Dichloro-2-hydroxy-phenyl)-N′-[4-(1,1-dimethyl-propyl)-2-hydroxy-phenyl]-oxalamide]
16 | 288 °C | O=C(Nc1cc(-c2ccccc2)ccc1O)C(=O)Nc1cc(Cl)cc(Cl)c1O [Example 5, N-(3,5-Dichloro-2-hydroxy-phenyl)-N′-(4-hydroxy-biphenyl-3-yl)-oxalamide]
17 | 250 °C | O=C(Nc1cc(C(=O)NCc2ccncc2)ccc1O)C(=O)Nc1cc(Cl)cc(Cl)c1O [Example 33, N-(3,5-Dichloro-2-hydroxy-phenyl)-N′-{2-hydroxy-5-[(pyridin-4-ylmethyl)-carbamoyl]-phenyl}-oxalamide]
18 | 296 °C | O=C(Nc1cccc(Cl)c1O)C(=O)Nc1cc(Cl)cc(Cl)c1O [Example 19, N-(3-Chloro-2-hydroxy-phenyl)-N′-(3,5-dichloro-2-hydroxy-phenyl)-oxalamide]
19 | 260 °C | Cc1cccc(O)c1NC(=O)C(=O)Nc1cc(Cl)cc(Cl)c1O [Example 10, N-(3,5-Dichloro-2-hydroxy-phenyl)-N′-(2-hydroxy-6-methyl-phenyl)-oxalamide]
20 | 254 °C | CCOC(=O)C(Cc1ccccc1)NC(=O)c1ccc(O)c(NC(=O)C(=O)Nc2cc(Cl)cc(Cl)c2O)c1 (stereo in doubt) [Example 32, 2(2R)-{3-[(3,5-Dichloro-2-hydroxy-phenylaminooxalyl)-amino]-4-hydroxy-benzoylamino}-3-phenyl-propionic acid ethyl ester]
21 | 265 °C | O=C(Nc1cc(Cl)cc(Cl)c1O)C(=O)Nc1c(O)ccc2ccccc12 [Example 8, N-(3,5-Dichloro-2-hydroxy-phenyl)-N′-(2-hydroxy-naphthalen-1-yl)-oxalamide]
22 | 311 °C | O=C(Nc1cc(Cl)ccc1O)C(=O)Nc1cc(Cl)cc(Cl)c1O [Example 7, N-(5-Chloro-2-hydroxy-phenyl)-N′-(3,5-dichloro-2-hydroxy-phenyl)-oxalamide]
23 | 175 °C | O=C(Nc1cc(C(=O)NCCCn2ccnc2)ccc1O)C(=O)Nc1cc(Cl)cc(Cl)c1O [Example 36, N-(3,5-Dichloro-2-hydroxy-phenyl)-N′-[2-hydroxy-5-(3-imidazol-1-yl-propylcarbamoyl)-phenyl]-oxalamide]
24 | 302 °C | O=C(Nc1cc(Cl)cc(Cl)c1O)C(=O)Nc1ccc(F)c(F)c1O [Example 20, N-(3,5-Dichloro-2-hydroxy-phenyl)-N′-(3,4-difluoro-2-hydroxy-phenyl)-oxalamide]
